Data taken from article PMC12136037, “Type II kinase inhibitors that target Parkinson’s disease–associated LRRK2” (Science Advances, 2025).
Where “and” joins values, the source holds several entries; their conditions need not be identical. Equal values may be shown once. Read-outs that look alike come from different tables or passages of the source.

Assays:
[1] = target: T1, STK10 (Homo sapiens, UniProt O94804); assay: nanoBRET off-target validation; format: cell-based
T1 construct: host or cells: HEK293T (ATCC CRL-3216)
T1 sequence (O94804 whole entry): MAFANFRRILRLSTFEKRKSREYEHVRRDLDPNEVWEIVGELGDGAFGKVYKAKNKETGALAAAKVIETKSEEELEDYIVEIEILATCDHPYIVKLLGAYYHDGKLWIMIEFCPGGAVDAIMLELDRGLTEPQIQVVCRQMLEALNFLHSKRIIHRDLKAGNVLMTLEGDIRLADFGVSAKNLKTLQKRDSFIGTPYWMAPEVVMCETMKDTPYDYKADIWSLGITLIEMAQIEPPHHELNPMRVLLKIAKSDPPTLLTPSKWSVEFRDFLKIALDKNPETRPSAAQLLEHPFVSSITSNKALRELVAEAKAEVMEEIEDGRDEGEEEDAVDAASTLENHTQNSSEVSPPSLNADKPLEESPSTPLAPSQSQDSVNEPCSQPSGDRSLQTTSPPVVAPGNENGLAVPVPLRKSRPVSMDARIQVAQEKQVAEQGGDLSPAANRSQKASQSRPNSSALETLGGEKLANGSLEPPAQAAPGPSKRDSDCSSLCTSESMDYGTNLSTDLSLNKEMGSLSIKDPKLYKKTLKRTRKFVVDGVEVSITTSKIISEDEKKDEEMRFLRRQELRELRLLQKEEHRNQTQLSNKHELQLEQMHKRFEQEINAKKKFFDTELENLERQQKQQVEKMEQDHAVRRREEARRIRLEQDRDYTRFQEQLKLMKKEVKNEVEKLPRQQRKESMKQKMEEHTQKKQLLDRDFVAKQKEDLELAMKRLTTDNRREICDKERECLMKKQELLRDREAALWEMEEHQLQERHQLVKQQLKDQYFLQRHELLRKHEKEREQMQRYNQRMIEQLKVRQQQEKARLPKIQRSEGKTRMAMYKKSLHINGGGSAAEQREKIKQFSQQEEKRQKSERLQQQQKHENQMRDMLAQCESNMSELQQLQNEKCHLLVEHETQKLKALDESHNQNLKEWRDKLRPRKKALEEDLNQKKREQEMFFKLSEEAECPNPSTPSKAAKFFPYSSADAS
Procedure: (§1) The assay was performed as described previously ([61]). In brief, full-length kinases as listed in table S6 were obtained as plasmids cloned in frame with terminal NanoLuc-fusion (gift from Promega; table S6). […] Serially diluted inhibitor and corresponding tracer as listed in table S6 at the Tracer KD concentration taken from TracerDB (tracerdb.org) ([62]) were pipetted into white 384-well plates (Greiner, 781207) using an ECHO acoustic dispenser (Labcyte). The corresponding protein-transfected cells were added and reseeded at a density of 2 × 10^5 cells/ml after trypsinization and resuspending in Opti-MEM without phenol red (Life Technologies). The system was allowed to equilibrate for 3 hours at 37°C/5% CO2 before bioluminescence resonance energy transfer (BRET) measurements. To measure BRET, NanoBRET NanoGlo Substrate + extracellular NanoLuc Inhibitor (Promega, N2540) was added as per the manufacturer’s protocol, and filtered luminescence was measured on a PHERAstar plate reader (BMG Labtech) equipped with a luminescence filter pair [450-nm BP filter (donor) and 610-nm LP filter (acceptor)]. […] (For step-by-step protocol, see www.eubopen.org/sites/www.eubopen.org/files/attachments/2021/NanoBRET-IC50_v1_0.pdf.)

[2] = target: T2, CDKL1 (Homo sapiens, UniProt Q00532); assay: nanoBRET off-target validation; format: cell-based
T2 construct: host or cells: HEK293T (ATCC CRL-3216)
T2 sequence (Q00532 whole entry): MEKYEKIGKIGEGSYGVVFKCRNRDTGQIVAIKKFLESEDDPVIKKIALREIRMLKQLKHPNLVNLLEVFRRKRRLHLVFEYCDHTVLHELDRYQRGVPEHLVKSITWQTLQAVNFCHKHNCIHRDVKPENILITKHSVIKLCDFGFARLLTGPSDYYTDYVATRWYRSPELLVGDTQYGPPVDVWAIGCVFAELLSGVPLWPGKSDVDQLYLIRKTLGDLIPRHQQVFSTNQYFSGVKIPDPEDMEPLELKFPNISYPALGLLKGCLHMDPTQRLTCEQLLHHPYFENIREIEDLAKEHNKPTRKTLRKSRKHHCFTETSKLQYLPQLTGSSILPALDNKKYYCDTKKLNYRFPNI
Procedure: as §1

CCSc1nc(NC)c2c(-c3cccc(NC(=O)Nc4cc(C(C)(C)C)nn4-c4ccc(C)cc4)c3)c[nH]c2n1 [Compound 32]
nanoBRET response normalized to 0% (no tracer) and 100% (no inhibitor) control ([1]; STK10, inhibitor 8 nM, two replicates, listed as RN341, 0.008 µM): 93.5752% | remaining activity at 0.008 µM ([1]; STK10, inhibitor 8 nM, two replicates, read-out: nanoBRET response normalized to 0% (no tracer) and 100% (no inhibitor) control): 98.7% | nanoBRET response normalized to 0% (no tracer) and 100% (no inhibitor) control ([1]; STK10, inhibitor 16 nM, two replicates, listed as RN341, 0.016 µM): 98.653% | remaining activity at 0.016 µM ([1]; STK10, inhibitor 16 nM, two replicates, read-out: nanoBRET response normalized to 0% (no tracer) and 100% (no inhibitor) control): 95% | nanoBRET response normalized to 0% (no tracer) and 100% (no inhibitor) control ([1]; STK10, inhibitor 50 nM, two replicates, listed as RN341, 0.05 µM): 90.2983% | remaining activity at 0.05 µM ([1]; STK10, inhibitor 50 nM, two replicates, read-out: nanoBRET response normalized to 0% (no tracer) and 100% (no inhibitor) control): 93.4% | nanoBRET response normalized to 0% (no tracer) and 100% (no inhibitor) control ([1]; STK10, inhibitor 250 nM, two replicates, listed as RN341, […]): 75.9451% | remaining activity at […] ([1]; STK10, inhibitor 250 nM, two replicates, read-out: nanoBRET response normalized to 0% (no tracer) and 100% (no inhibitor) control): 77.3% | nanoBRET response normalized to 0% (no tracer) and 100% (no inhibitor) control ([1]; STK10, inhibitor 500 nM, two replicates, listed as RN341, 0.5 µM): 59.4137% | remaining activity at 0.5 µM ([1]; STK10, inhibitor 500 nM, two replicates, read-out: nanoBRET response normalized to 0% (no tracer) and 100% (no inhibitor) control): 61.4% | nanoBRET response normalized to 0% (no tracer) and 100% (no inhibitor) control ([1]; STK10, inhibitor 2500 nM, two replicates, listed as RN341, […]): 44.5595% | remaining activity at […] ([1]; STK10, inhibitor 2500 nM, two replicates, read-out: nanoBRET response normalized to 0% (no tracer) and 100% (no inhibitor) control): 60.9% | nanoBRET response normalized to 0% (no tracer) and 100% (no inhibitor) control ([1]; STK10, inhibitor 5000 nM, two replicates, listed as RN341, 5 µM): 40.1132% | remaining activity at 5 µM ([1]; STK10, inhibitor 5000 nM, two replicates, read-out: nanoBRET response normalized to 0% (no tracer) and 100% (no inhibitor) control): 58.5% | nanoBRET response normalized to 0% (no tracer) and 100% (no inhibitor) control ([1]; STK10, inhibitor 25000 nM, two replicates, listed as RN341, 25 µM): 8.0832% | remaining activity at 25 µM ([1]; STK10, inhibitor 25000 nM, two replicates, read-out: nanoBRET response normalized to 0% (no tracer) and 100% (no inhibitor) control): 6.79% | EC50 ([1]; in cellulo nanoBRET, 293T cells): < 5 µM and 1.5 µM | EC50 [2]: 17 µM | remaining activity at 0.008 µM ([2]; CDKL1, inhibitor 8 nM, two replicates, read-out: nanoBRET response normalized to 0% (no tracer) and 100% (no inhibitor) control): 102% and 110% | nanoBRET response normalized to 0% (no tracer) and 100% (no inhibitor) control ([2]; CDKL1, inhibitor 16 nM, two replicates, listed as RN341, 0.016 µM): 102.251% | remaining activity at 0.016 µM ([2]; CDKL1, inhibitor 16 nM, two replicates, read-out: nanoBRET response normalized to 0% (no tracer) and 100% (no inhibitor) control): 96.8% | remaining activity at 0.05 µM ([2]; CDKL1, inhibitor 50 nM, two replicates, read-out: nanoBRET response normalized to 0% (no tracer) and 100% (no inhibitor) control): 106% and 102% | nanoBRET response normalized to 0% (no tracer) and 100% (no inhibitor) control ([2]; CDKL1, inhibitor 250 nM, two replicates, listed as RN341, […]): 106.285% | remaining activity at […] ([2]; CDKL1, inhibitor 250 nM, two replicates, read-out: nanoBRET response normalized to 0% (no tracer) and 100% (no inhibitor) control): 116% | nanoBRET response normalized to 0% (no tracer) and 100% (no inhibitor) control ([2]; CDKL1, inhibitor 500 nM, two replicates, listed as RN341, 0.5 µM): 96.8094% | remaining activity at 0.5 µM ([2]; CDKL1, inhibitor 500 nM, two replicates, read-out: nanoBRET response normalized to 0% (no tracer) and 100% (no inhibitor) control): 106% | nanoBRET response normalized to 0% (no tracer) and 100% (no inhibitor) control ([2]; CDKL1, inhibitor 2500 nM, two replicates, listed as RN341, […]): 88.1398% | remaining activity at […] ([2]; CDKL1, inhibitor 2500 nM, two replicates, read-out: nanoBRET response normalized to 0% (no tracer) and 100% (no inhibitor) control): 91% | nanoBRET response normalized to 0% (no tracer) and 100% (no inhibitor) control ([2]; CDKL1, inhibitor 5000 nM, two replicates, listed as RN341, 5 µM): 77.8643% | remaining activity at 5 µM ([2]; CDKL1, inhibitor 5000 nM, two replicates, read-out: nanoBRET response normalized to 0% (no tracer) and 100% (no inhibitor) control): 74.8% | nanoBRET response normalized to 0% (no tracer) and 100% (no inhibitor) control ([2]; CDKL1, inhibitor 25000 nM, two replicates, listed as RN341, 25 µM): 39.2489% | remaining activity at 25 µM ([2]; CDKL1, inhibitor 25000 nM, two replicates, read-out: nanoBRET response normalized to 0% (no tracer) and 100% (no inhibitor) control): 46.9%
